Test results as given in PMC6363832 (Cancer epidemiology, biomarkers & prevention : a …, 2018).

Legend:
Assay type in all cases: biochemical
Settings in all cases: NADPH regenerating system, 50 mM potassium phosphate, 37 °C; HEK293 microsomes
wt FMO4 [1] = biological target: T1, wt FMO4 (Homo sapiens, UniProt P31512); test: nicotine-N'-oxide formation, UPLC-MS/MS
T1 sequence (P31512 1-558): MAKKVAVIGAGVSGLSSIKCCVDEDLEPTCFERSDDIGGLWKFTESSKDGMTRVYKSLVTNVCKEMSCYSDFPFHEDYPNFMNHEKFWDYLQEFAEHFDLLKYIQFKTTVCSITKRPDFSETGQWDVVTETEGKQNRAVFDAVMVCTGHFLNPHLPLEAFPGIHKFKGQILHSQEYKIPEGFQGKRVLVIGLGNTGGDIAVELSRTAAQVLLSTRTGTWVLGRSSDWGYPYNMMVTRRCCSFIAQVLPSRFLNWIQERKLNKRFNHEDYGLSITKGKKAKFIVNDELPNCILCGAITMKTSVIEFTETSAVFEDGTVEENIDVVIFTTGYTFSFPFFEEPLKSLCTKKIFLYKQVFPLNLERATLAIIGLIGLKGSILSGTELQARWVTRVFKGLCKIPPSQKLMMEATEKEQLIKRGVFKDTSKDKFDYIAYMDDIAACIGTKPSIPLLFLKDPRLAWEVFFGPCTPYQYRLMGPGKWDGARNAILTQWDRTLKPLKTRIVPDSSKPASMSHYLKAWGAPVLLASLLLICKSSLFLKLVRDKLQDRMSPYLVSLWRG

wt FMO5 [2] = biological target: T2, wt FMO5 (Homo sapiens, UniProt P49326); test: nicotine-N'-oxide formation, UPLC-MS/MS
T2 sequence (P49326 1-533): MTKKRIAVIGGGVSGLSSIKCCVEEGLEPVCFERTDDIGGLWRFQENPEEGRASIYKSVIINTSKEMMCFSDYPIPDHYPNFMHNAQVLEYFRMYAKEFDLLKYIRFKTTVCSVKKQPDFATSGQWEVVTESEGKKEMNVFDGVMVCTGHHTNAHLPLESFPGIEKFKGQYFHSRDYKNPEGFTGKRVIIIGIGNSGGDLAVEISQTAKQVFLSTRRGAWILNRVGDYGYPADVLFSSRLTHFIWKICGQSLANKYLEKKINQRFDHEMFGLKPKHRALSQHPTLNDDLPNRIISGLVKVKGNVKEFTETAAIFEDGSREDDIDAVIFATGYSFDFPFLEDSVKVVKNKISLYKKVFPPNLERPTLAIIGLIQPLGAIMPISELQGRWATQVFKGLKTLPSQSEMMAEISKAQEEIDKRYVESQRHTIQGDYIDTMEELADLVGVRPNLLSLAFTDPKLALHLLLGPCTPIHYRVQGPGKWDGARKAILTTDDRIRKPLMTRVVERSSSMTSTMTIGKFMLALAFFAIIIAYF

wt FMO4 [3] = biological target: T1, wt FMO4; test: benzydamine N-oxidation, UPLC-MS/MS
wt FMO5 [4] = biological target: T2, wt FMO5; test: benzydamine N-oxidation, UPLC-MS/MS

CN1CCC[C@H]1c1cccnc1 [compound 4, nicotine]
Km (wt FMO4 [1]): > 5 mM
Km (wt FMO5 [2]): > 5 mM

CN(C)CCCOc1nn(Cc2ccccc2)c2ccccc12 [benzydamine]
Km (wt FMO4 [3]): > 3 mM
Km (wt FMO5 [4]): > 2 mM
